This is an account of results in publication PMC7339037 (Journal of medicinal chemistry, 2017).

The nature of one series: Solubility. Format: physicochemical.
Series [1] has as its target RPA (replication protein A) (Homo sapiens, UniProt P27694). The experiment in a line: RPA-based EMSA. Format: binding. The settings on record: at 10 μM.
The target in the next series is full length human XPA (Homo sapiens, UniProt P23025). The experiment in a line: EMSA, binding of full length human XPA to a cisplatin-modified DNA. For orientation: Mobility shift assays separate free from complexed probe on a gel.
full length human XPA, sequence (P23025 whole entry): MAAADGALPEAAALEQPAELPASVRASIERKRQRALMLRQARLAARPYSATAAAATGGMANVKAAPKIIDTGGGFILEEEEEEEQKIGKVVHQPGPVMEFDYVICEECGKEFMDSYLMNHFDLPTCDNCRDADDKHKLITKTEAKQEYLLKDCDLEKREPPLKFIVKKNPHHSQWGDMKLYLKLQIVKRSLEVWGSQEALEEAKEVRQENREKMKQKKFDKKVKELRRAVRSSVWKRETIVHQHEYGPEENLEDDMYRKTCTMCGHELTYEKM

RPA (replication protein A), sequence (P27694 whole entry): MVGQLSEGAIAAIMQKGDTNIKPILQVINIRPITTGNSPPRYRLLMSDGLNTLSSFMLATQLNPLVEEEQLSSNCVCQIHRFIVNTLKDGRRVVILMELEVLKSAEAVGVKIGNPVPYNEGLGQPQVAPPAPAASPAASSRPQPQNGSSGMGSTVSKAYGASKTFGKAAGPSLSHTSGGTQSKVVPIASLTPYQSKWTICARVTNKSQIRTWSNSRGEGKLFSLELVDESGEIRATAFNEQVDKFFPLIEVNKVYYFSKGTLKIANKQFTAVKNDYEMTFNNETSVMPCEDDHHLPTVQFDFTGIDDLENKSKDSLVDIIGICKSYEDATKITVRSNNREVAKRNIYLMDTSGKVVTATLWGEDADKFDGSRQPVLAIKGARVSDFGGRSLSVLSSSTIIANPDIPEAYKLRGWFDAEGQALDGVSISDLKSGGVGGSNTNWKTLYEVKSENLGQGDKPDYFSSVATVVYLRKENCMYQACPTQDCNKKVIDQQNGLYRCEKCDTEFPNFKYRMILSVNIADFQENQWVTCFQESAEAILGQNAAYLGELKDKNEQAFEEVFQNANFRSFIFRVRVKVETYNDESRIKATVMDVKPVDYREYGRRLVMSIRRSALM

On to `CC1=NN(c2ccc(Cl)c(C(=O)O)c2)C(=O)/C1=C\c1ccc(-c2ccc(Cl)c(C(=O)OCc3ccccc3)c2)o1` [Compound 22], for which, in the series “Solubility”, the “solubility (in words)” value is recorded as “poor solubility”. In addition, the RPA inhibition entry in series [1] is given as “no RPA inhibition”.
The like results for `CC1=NN(c2ccc(Cl)c(C(=O)O)c2)C(=O)/C1=C\c1ccc(-c2ccc(Cl)c(C(=O)OCc3ccccc3Cl)c2)o1` [Compound 24] were, in that order, “poor solubility” and “no RPA inhibition”.
For `CCOC(=O)c1cccc(N2N=C(C)/C(=C/c3ccc(-c4ccc(Cl)c(C(=O)NCc5ccc(F)cc5)c4)o3)C2=O)c1` [Compound 33a, (Z)-Ethyl 3-(4-((5-(4-Chloro-3-((4-fluorobenzyl)carbamoyl)phenyl)furan-2-yl)-methylene)-3-methyl-5-oxo-4,5-dihydro-1H-pyrazol-1-yl)benzoate], the “XPA inhibitory activity (in words)” value at full length human XPA is given as “dramatically decreased or almost no XPA inhibitory activity”.
In the case of `CC1=NN(c2cccc(C(=O)O)c2)C(=O)/C1=C\c1ccc(-c2ccc(Cl)c(C(=O)NCc3ccc(F)cc3)c2)o1` [Compound 34a, (Z)-3-(4-((5-(4-Chloro-3-((4-fluorobenzyl)carbamoyl)phenyl)furan-2-yl)methylene)-3-methyl-5-oxo-4,5-dihydro-1H-pyrazol-1-yl)-benzoic Acid], the “solubility (in words)” value in “Solubility” was “dramatically increased solubility”.
Turning to `CC1=NN(c2cccc(C(=O)NCC3CC3)c2)C(=O)/C1=C\c1ccc(-c2ccc(Cl)c(C(=O)NCC3CC3)c2)o1` [Compound 34e, (Z)-2-Chloro-N-(cyclopropylmethyl)-5-(5-((1-(3-((cyclopropylmethyl)carbamoyl)phenyl)-3-methyl-5-oxo-1H-pyrazol-4(5H)-ylidene)methyl)furan-2-yl)-benzamide], at full length human XPA, the “XPA inhibitory activity (in words)” value was “dramatically decreased or almost no XPA inhibitory activity”.
On to `CC1=NN(c2ccc(C(=O)O)cc2)C(=O)/C1=C\c1ccc(-c2ccc(Cl)c(C(=O)NCc3ccc(F)cc3)c2)o1` [Compound 34i, (Z)-4-(4-((5-(4-Chloro-3-((4-fluorobenzyl)carbamoyl)phenyl)-furan-2-yl)methylene)-3-methyl-5-oxo-4,5-dihydro-1H-pyrazol-1-yl)benzoic Acid], for which the RPA inhibition entry in series [1] is recorded as “no RPA inhibition”.
Consider `CC1=NN(c2ccc(C(=O)O)cc2)C(=O)/C1=C\c1ccc(-c2ccc(Cl)c(C(=O)NCC3CC3)c2)o1` [Compound 34k, (Z)-4-(4-((5-(4-Chloro-3-((cyclopropylmethyl)carbamoyl)phenyl)-furan-2-yl)methylene)-3-methyl-5-oxo-4,5-dihydro-1H-pyrazol-1-yl)benzoic Acid], for which, in series [1], the RPA inhibition entry is on record as “no RPA inhibition”.
In the case of `CC1=NN(c2cccc(C(=O)O)c2)C(=O)/C1=C\c1ccc(-c2ccc(C(=O)NCc3ccc(F)cc3)cc2)o1` [Compound 39a, (Z)-3-(4-((5-(4-((4-Fluorobenzyl)carbamoyl)phenyl)furan-2-yl)-methylene)-3-methyl-5-oxo-4,5-dihydro-1H-pyrazol-1-yl)benzoic Acid], at full length human XPA, the “XPA inhibitory activity (in words)” value was “no XPA inhibitory activity”.
With `CC1=NN(c2cccc(C(=O)O)c2)C(=O)/C1=C\c1ccc(-c2ccc(C(=O)NCC3CC3)cc2)o1` [Compound 39b, (Z)-3-(4-((5-(4-((Cyclopropylmethyl)carbamoyl)phenyl)furan-2-yl)methylene)-3-methyl-5-oxo-4,5-dihydro-1H-pyrazol-1-yl)benzoic Acid], the “XPA inhibitory activity (in words)” value on full length human XPA is recorded as “no XPA inhibitory activity”.
